In test [1] the test system is ACLT surgery induced osteoarthritis mouse model. Description: OARSI histologic scoring of cartilage degradation in ACLT surgery induced OA murine model. Format: in vivo. The procedure: (§1) The OA murine model is induced by anterior cruciate ligament (ACLT) surgery. In brief, a medial arthrotomy was performed. With the knee in full flexion, the patella was dislocated laterally, the anterior cruciate ligament (ACLT) was transected, and then the wounds were closed.
(§2) The ACLT surgery was performed on the unilateral knees of each mouse for 2 months prior to the treatments. Twenty mice were randomly divided into 5 groups: (i) non-treated group [n=3]; (ii) vehicle-treated group [n=4]; (iii) PDSP-treated group [n=5], (iv) vehicle combined with IPFP-MSC-treated group [n=3]; (v) PDSP combined with IPFP-MSC-treated group [n=5] in ACLT surgery induced OA groups, while the knees without surgery serve as sham-operated group [n=4]. At eight weeks after ACLT surgery (first injection), the knee joints of the non-treated, vehicle-treated, or PDSP-treated groups were intra-articular injected, respectively, with 0.01 mL PBS, vehicle, or PDSP, while those of the vehicle or PDSP combined with IPFP-MSC groups were injected with hMSCs in 0.01 mL. MSCs were intra-articular injected at the first treatment only (i.e., at 8 weeks). For the second treatments (two weeks after MSC injections or 10 weeks after ACLT surgery), those of the vehicle or PDSP combined with IPFP-MSC injection groups were injected with 0.01 mL vehicle or PDSP. […]

For test [2] the test system is unchanged. Nature of the test: Safranin O and H&E histological staining of the murine knee joints. Format: in vivo. The following applies: ACLT surgery induced OA mice; compared with non-treated OA groups. On the procedure: as §1, §2
The next test relates to type II collagen. Nature of the test: Type II collagen immunohistochemistry (IHC) staining of the murine knee joint. Format: in vivo, mouse. The following applies: ACLT surgery induced OA mice; compared with non-treated and vehicle-treated OA groups. The procedure: as §1, §2
The subject of a further test is type X collagen. Nature of the test: Type X collagen immunohistochemistry (IHC) staining of the murine knee joint. The following applies: ACLT surgery induced OA mice. Format: in vivo, mouse. The procedure:
as §1, §2

In test [3] the test system is human bone marrow-derived mesenchymal stem cells (hBM-MSC). Nature of the test: hBM-MSC spheroid chondrogenesis, Alcian Blue staining at day 14. The note with it: PDSP 10 μM, chondrogenic differentiation medium with TGFβ1 10 ng/ml. The format is cell-based. On the procedure: To shed light on possible mechanisms for the effects of PDSP chondrogenesis, further experiments were conducted to assess the effects of PDSP on MSC. The MSC used in this study are human bone marrow-derived mesenchymal stem cells (hBM-MSC) from Gibco (StemPro™ BM Mesenchymal Stem Cells). […] Human bone marrow MSC spheroids were cultured with chondrogenic differentiation medium, with or without TGFβ1 and with or without PDSP. The media were changed every 3 days. On day 14, the cartilage spheroids were collected for evaluation. The various media compositions are as follows (the base medium is a high-glucose DMEM supplemented with 1×10^−7M dexamethasone, 1×10^−3M sodium pyruvate, 1.7×10^−4M L-ascorbic acid-2-phosphate, 3.5×10^−4M proline, 5 mL ITS+Premix in 500 mL medium, and 1% antibiotic): […]

For “SLGAEQRTESIIHRALYYDLISSPDIHGT (listed as Homo sapiens) [PDSP, PEDF-derived short peptide]”, the OARSI scores in test [1] (ACLT surgery induced OA groups, text values with their spread (SEM per Table 2)) amounted to 3.47±0.19. Also, the “The histologic scoring of murine OA (OARSI score), Average” value in test [1] (ACLT surgery induced osteoarthritis mice, intra-articular injection at 8 and 10 weeks after surgery, average over animals) amounted to 3.47. Also, the “Cartilage loss and surface irregularity in the medial and lateral compartments (safranin O and H&E staining)” value in test [2] is “less cartilage loss and surface irregularity”. In the test on type II collagen, the “Expression of type II collagen (IHC)” value is reported as “increased”. Also, the “Type X collagen signals (IHC)” value in the test with type X collagen was “decreased”. In test [3], the “Cartilage spheroids size (total area)” value is “increase the cartilage spheroids size” and the “Chondrogenesis (Alcian blue positive area; differentiation of hBM-MSC into chondrocytes)” value is given as “promote chondrogenesis”.
